Patent US8158804B2, “Chelating agents” (GE Healthcare AS, priority 2007, dated 2012)

Assays:
[1] = Stability of gadolinium chelates, spectrophotometric (UV absorbance vs pH) method; format: physicochemical; details: chelant with 1 equivalent of gadolinium (III); calculated from UV absorbance as a function of pH
Description: Stabilities of the gadolinium complexes of the chelates were measured by a spectrophotometric method using the principle that there is a change in UV absorbance of these compounds as the hydroxyl group on the pyridinone ring deprotonates. There is a significant decrease in the wavelength of the UV maximum as the proton is removed. The UV absorbance of the chelants at different pH's was determined to measure the UV absorbance at different degrees of protonation. The measurements were then repeated in the presence of 1 equivalent of gadolinium (III) and the effect on the UV absorbtion as a function of pH measured. A software program was used to analyze the data and calculate the affinity of the chelates for gadolinium.

[2] = Reference 1; cited from earlier work
[3] = Solubility of gadolinium chelates in water by HPLC analysis; format: physicochemical; details: aqueous solution at 20° C.; for Water solubility of chelate: equilibration by shaking for a few hours
Description: The solubility of the gadolinium chelates in table 2 was measured by HPLC analysis of the concentrations of compound in aqueous solutions at 20° C. after equilibration by shaking for a few hours. […] This indicated the saturation point of the solution.

[4] = Measurement of longitudinal relaxivity (T1 by inversion recovery method); format: physicochemical
Description: T1 was measured by the inversion recovery method as described by Timothy D. W. Claridge, in “High-Resolution NMR Techniques in Organic Chemistry” Pergamon Amsterdam 1999, 26-30.

Row | Compound | Gd Chelate STABILITY CONSTANT (LogKGdL) [1] | Water solubility of chelate [3] | also measured
1 | COCCn1ccc(=O)c(O)c1C(=O)NCC1CC(CNC(=O)c2c(O)c(=O)ccn2CCOC)CC(CNC(=O)c2c(O)c(=O)ccn2CCOC)C1 (stereo not drawn) [Example 3, Cis, cis 1,3,5,tris((3-hydroxy-1-(2-methoxyethyl)-4-oxo-4H-pyrid-2yl-)carboxyaminomethyl)-cyclohexane] | 21.287 |  | 
2 | Bis aquo tris(3-hydroxy-1-(2-methoxyethyl)-4-oxo-4H-pyridin-2yl-)carboxyaminoeth-2-yl)amine gadolinium (III) salt [Example 1e] |  | <500 µg/mL | r1 at 10 MHz ([4]; 10 MHz): 9.7 mM⁻¹ s⁻¹; r1 at 20 MHz ([4]; 20 MHz): 11.6 mM⁻¹ s⁻¹; r1 at 60 MHz ([4]; 60 MHz): 9.5 mM⁻¹ s⁻¹
3 | Bis aquo tris((3-hydroxy-1-(2,3,4-trihydroxybutane)-4-oxo-4H-pyridin-2yl-)carboxyaminoeth-2-yl)amine gadolinium (III) salt [Example 7] |  |  | Water solubility of chelate (kinetic solubility) ([3]; kinetic solubility, some compound precipitates on standing): ~10 mg/ml* *Kinetic solubility, but some compound precipitates on standing
4 | Bis aquo tris((3-hydroxy-1-(2-(2-hydroxyethoxy)ethyl)-4-oxo-4H-pyridin-2yl-)carboxyaminoeth-2-yl)amine gadolinium (III) salt [Example 5] |  | <1000 µg/mL | 
5 | Bis aquo tris(-3-hydroxy-1-(2-hydroxyethyl)-4-oxo-4H-pyridin-2yl-)carboxyaminoeth-2-yl)-amine gadolinium (III) salt [Example 4] | 17.929 | <500 µg/mL | 

Now from value to compound, other results behind:

Row | Gd Chelate STABILITY CONSTANT (LogKGdL) [1] | Water solubility of chelate [3] | Compound | also measured
6 | 15.716 |  | COCCn1ccc(=O)c(O)c1C(=O)NCCCC(CCCNC(=O)c1c(O)c(=O)ccn1CCOC)(CCCNC(=O)c1c(O)c(=O)ccn1CCOC)NC(=O)c1ccccc1 [Example 11, Tris((3-hydroxy-1-(2-methoxyethyl)-4-oxo-4H-pyridin-2-yl)-carboxyaminopropyl)-phenylcarboxyaminomethane] | 
7 | 18.284 |  | O=C(NC(CCCNC(=O)c1c(O)c(=O)ccn1CCO)(CCCNC(=O)c1c(O)c(=O)ccn1CCO)CCCNC(=O)c1c(O)c(=O)ccn1CCO)c1ccccc1 [Example 12] | 
8 | 18.650 |  | O=C(NCCN(CCNC(=O)c1occc(=O)c1O)CCNC(=O)c1occc(=O)c1O)c1occc(=O)c1O [Standard, reference compound] | pGd [2]: 19.27
9 |  | >200000 µg/mL | Bis aquo tris((3-hydroxy-1-(2,3,4,5,6-pentahydroxyhexane)-4-oxo-4H-pyridin-2yl-]carboxyaminoeth-2-yl)amine gadolinium (III) [Example 8] | 
10 |  | 3400 µg/mL | Bis aquo tris((3-hydroxy-1-(2,3-dihydroxypropane)-4-oxo-4H-pyrid-2yl-)carboxyaminoeth-2-yl)-amine gadolinium (III) salt [Example 6] | 
